Values of other authors as cited in patent US20090275622A1, “NIZATIDINE FORMULATIONS” (priority 2008, published 2009).

Conditions: crystalline solid

## CN/C(=C\[N+](=O)[O-])NCCSCc1csc(CN(C)C)n1 [Nizatidine, N-[2-[[[2-[(dimethylamino)methyl]-4-thiazolyl]methyl]thio]ethyl]-N′-methyl-2-nitro-1,1-ethenediamine]
  Solubility in water: soluble in water
